Measurements from the NIST ThermoML archive (doi:10.1021/acs.jced.8b00387).

Assay: xn = mol fraction of the nth substance listed
Conditions: for viscosity / mass density / speed of sound: 102 kPa, Liquid; for viscosity: Concentric cylinders viscometry; for mass density: Vibrating tube method; for speed of sound: Frequency=3 MHz, Single path-length method; for surface tension liquid-gas: 295 K, Pendant drop shape

CC(CC(C)(C)C)CC(C)(C)C [2,2,4,6,6-pentamethylheptane] + CCCCc1ccccc1
Conditions	mass density [kg/m3]	speed of sound [m/s]	viscosity [mPa·s]
253.15 K, x2 = 0.1001	782.1	–	–
253.15 K, x2 = 0.1015	–	–	2.82
253.15 K, x2 = 0.2	791.5	–	–
253.15 K, x2 = 0.2005	–	–	2.63
253.15 K, x2 = 0.2999	–	–	2.49
253.15 K, x2 = 0.3001	801	–	–
253.15 K, x2 = 0.4001	–	–	2.37
253.15 K, x2 = 0.4006	811.2	–	–
253.15 K, x2 = 0.4996	–	–	2.28
253.15 K, x2 = 0.5	822.2	–	–
253.15 K, x2 = 0.6	–	–	2.24
253.15 K, x2 = 0.6002	834.1	–	–
253.15 K, x2 = 0.6999	846.8	–	2.2
253.15 K, x2 = 0.8	–	–	2.19
253.15 K, x2 = 0.8009	860	–	–
253.15 K, x2 = 0.9	876.1	–	2.21
288.15 K, x2 = 0.1001	756.92	1234.1	–
288.15 K, x2 = 0.2	765.57	1245.3	–
288.15 K, x2 = 0.3001	774.88	1257.1	–
288.15 K, x2 = 0.4006	784.92	1270	–
288.15 K, x2 = 0.5	795.63	1283.8	–
288.15 K, x2 = 0.6002	807.34	1298.7	–
288.15 K, x2 = 0.6999	819.87	1315	–
288.15 K, x2 = 0.8009	833.77	1332.9	–
288.15 K, x2 = 0.9	848.29	1352.1	–
293.15 K, x2 = 0.1001	753.25	1214.1	–
293.15 K, x2 = 0.1015	–	–	1.24
293.15 K, x2 = 0.2	761.88	1225.4	–
293.15 K, x2 = 0.2005	–	–	1.18
293.15 K, x2 = 0.2999	–	–	1.13
293.15 K, x2 = 0.3001	771.17	1237.2	–
293.15 K, x2 = 0.4001	–	–	1.08
293.15 K, x2 = 0.4006	781.17	1250	–
293.15 K, x2 = 0.4996	–	–	1.05
293.15 K, x2 = 0.5	791.85	1263.8	–
293.15 K, x2 = 0.6	–	–	1.02
293.15 K, x2 = 0.6002	803.52	1278.9	–
293.15 K, x2 = 0.6999	816.01	1295	1.01
293.15 K, x2 = 0.8	–	–	0.995
293.15 K, x2 = 0.8009	829.8	1312.9	–
293.15 K, x2 = 0.9	844.33	1332.1	0.997
303.15 K, x2 = 0.1001	745.91	1175	–
303.15 K, x2 = 0.1015	–	–	1.07
303.15 K, x2 = 0.2	754.49	1186.5	–
303.15 K, x2 = 0.2005	–	–	1.03
303.15 K, x2 = 0.2999	–	–	0.989
303.15 K, x2 = 0.3001	763.72	1198	–
303.15 K, x2 = 0.4001	–	–	0.951
303.15 K, x2 = 0.4006	773.66	1210.8	–
303.15 K, x2 = 0.4996	–	–	0.924
303.15 K, x2 = 0.5	784.27	1224.6	–
303.15 K, x2 = 0.6	–	–	0.904
303.15 K, x2 = 0.6002	795.86	1240.1	–
303.15 K, x2 = 0.6999	808.28	1255.8	0.887
303.15 K, x2 = 0.8	–	–	0.874
303.15 K, x2 = 0.8009	821.96	1274.1	–
303.15 K, x2 = 0.9	836.41	1292.8	0.874
313.15 K, x2 = 0.1001	738.55	1136.7	–
313.15 K, x2 = 0.1015	–	–	0.92
313.15 K, x2 = 0.2	747.07	1148.4	–
313.15 K, x2 = 0.2005	–	–	0.89
313.15 K, x2 = 0.2999	–	–	0.862
313.15 K, x2 = 0.3001	756.25	1159.8	–
313.15 K, x2 = 0.4001	–	–	0.837
313.15 K, x2 = 0.4006	766.12	1172.6	–
313.15 K, x2 = 0.4996	–	–	0.814
313.15 K, x2 = 0.5	776.66	1186.3	–
313.15 K, x2 = 0.6	–	–	0.798
313.15 K, x2 = 0.6002	788.17	1201.9	–
313.15 K, x2 = 0.6999	800.51	1217.5	0.781
313.15 K, x2 = 0.8	–	–	0.77
313.15 K, x2 = 0.8009	814.1	1235.9	–
313.15 K, x2 = 0.9	828.46	1254.4	0.77
323.15 K, x2 = 0.1001	731.16	1099.4	–
323.15 K, x2 = 0.1015	–	–	0.813
323.15 K, x2 = 0.2	739.61	1111	–
323.15 K, x2 = 0.2005	–	–	0.784
323.15 K, x2 = 0.2999	–	–	0.762
323.15 K, x2 = 0.3001	748.74	1122.4	–
323.15 K, x2 = 0.4001	–	–	0.735
323.15 K, x2 = 0.4006	758.55	1135.1	–
323.15 K, x2 = 0.4996	–	–	0.718
323.15 K, x2 = 0.5	769.02	1148.8	–
323.15 K, x2 = 0.6	–	–	0.703
323.15 K, x2 = 0.6002	780.45	1164.4	–
323.15 K, x2 = 0.6999	792.72	1179.9	0.692
323.15 K, x2 = 0.8	–	–	0.682
323.15 K, x2 = 0.8009	806.2	1198.3	–
323.15 K, x2 = 0.9	820.47	1216.8	0.683
333.15 K, x2 = 0.1001	723.71	1063	–
333.15 K, x2 = 0.1015	–	–	0.715
333.15 K, x2 = 0.2	732.11	1074.5	–
333.15 K, x2 = 0.2005	–	–	0.692
333.15 K, x2 = 0.2999	–	–	0.675
333.15 K, x2 = 0.3001	741.19	1086.1	–
333.15 K, x2 = 0.4001	–	–	0.653
333.15 K, x2 = 0.4006	750.94	1098.7	–
333.15 K, x2 = 0.4996	–	–	0.636
333.15 K, x2 = 0.5	761.34	1112.3	–
333.15 K, x2 = 0.6	–	–	0.627
333.15 K, x2 = 0.6002	772.69	1127.7	–
333.15 K, x2 = 0.6999	784.88	1143.2	0.617
333.15 K, x2 = 0.8	–	–	0.61
333.15 K, x2 = 0.8009	798.16	1161.4	–
333.15 K, x2 = 0.9	812.44	1180	0.611

Conditions	surface tension liquid-gas [mN/m]
x2 = 0.1001	22
x2 = 0.2	22.2
x2 = 0.3001	22.7
x2 = 0.4006	23.1
x2 = 0.5	23.5
x2 = 0.6002	24
x2 = 0.6999	24.8
x2 = 0.8009	25.7
x2 = 0.8985	26.7
